In one assay the target is Prothrombin (Homo sapiens, UniProt P00734). Put plainly: Compound was evaluated for its inhibitory activity against human thrombin.
Another assay addresses Serine protease 1 (Homo sapiens, UniProt P07477). Put plainly: Compound was evaluated for its inhibitory activity against trypsin.

In general, Ki refers to the dissociation constant of the complex between target and ligand, obtained from inhibition or displacement. Read a low Ki as higher affinity.

Sequence of Serine protease 1 (P07477 whole entry): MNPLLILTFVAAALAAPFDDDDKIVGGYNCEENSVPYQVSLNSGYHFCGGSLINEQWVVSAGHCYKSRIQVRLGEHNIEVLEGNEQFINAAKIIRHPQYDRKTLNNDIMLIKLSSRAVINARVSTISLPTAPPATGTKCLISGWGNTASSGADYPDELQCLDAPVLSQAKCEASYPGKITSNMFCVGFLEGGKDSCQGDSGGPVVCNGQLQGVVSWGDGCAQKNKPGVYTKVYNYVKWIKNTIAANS

Take `Nc1cc[n+](Cc2ccc(OC(CCc3ccccc3)c3ccccc3)cc2)cc1` (stereo unspecified): the Ki at Prothrombin came to 0.16 µM; on Serine protease 1, 16 µM.

For the compound `c1ccc(COc2ccc(CCNc3ccncc3)cc2)cc1`, the Ki on Prothrombin was 7.9 µM; at Serine protease 1, 568 µM.

`c1ccc(COc2ccc(C[n+]3ccccc3)cc2)cc1`: the Ki at Prothrombin is more than 500 µM.

Consider `Nc1cc[n+](Cc2ccc(OC(c3ccccc3)c3ccccc3)cc2)cc1`, for which the values for the Ki at Prothrombin and on Serine protease 1 were 0.058 µM and 517 µM, respectively.

As to `Nc1cc[n+](Cc2ccc(OCc3ccccc3)cc2)cc1`, the figures for the Ki at Prothrombin and on Serine protease 1 were 0.7 µM and 77 µM, respectively.

As for `Nc1ccc(Cc2ccc(OCc3ccccc3)cc2)cc1`, the Ki on Prothrombin and at Serine protease 1 was more than 10 µM each time.

At Prothrombin, `NC1CCN(Cc2ccc(OCc3ccccc3)cc2)CC1` gave a Ki of 581 µM.

For `c1ccc(COc2ccc(CNc3ccncc3)cc2)cc1`, the values for the inhibitory constant (Ki) on Prothrombin and at Serine protease 1 were 4.7 µM and 233 µM, respectively.

For the compound `c1ccc(C(Oc2ccc(CNc3ccncc3)cc2)c2ccccc2)cc1`, the Ki at Prothrombin turned out to be 1.3 µM; on Serine protease 1, 77 µM.

The record behind these values is ChEMBL document CHEMBL1131365, “Identification and SAR for a selective, nonpeptidyl thrombin inhibitor” (Bioorg Med Chem Lett, 1998).
